The source of these data is US20110052697A1, “Aptamer-Directed Drug Delivery” (GWANGJU INSTITUTE OF SCIENCE & TECHNOLOGY, priority 2006, published 2011).

For data set [1] the following is noted: cited from earlier work.
The target of the next data set is A10 PSMA aptamer. Nature of the data set: Fluorescence quenching titration of Dox with the A10 PSMA aptamer (Hill plot). Format: binding. To be noted: FIG. 2 inset. As to the method: A complex comprising the A10 PSMA aptamer (RNA-Tec, Belgium) and doxorubicin (Dox) was generated through the stepwise addition of increasing molar ratio of aptamer to a fixed concentration of doxorubicin (3 μM) in the presence of 0.1 M sodium acetate, 0.05 M sodium chloride, and 0.01 M magnesium chloride. The fluorescence of Dox was measured at 35 minutes by exciting the solution at 480 nm and recording the emission in the interval of 500 nm-720 nm (1.5 mm slit) on a Shimadzu RF-PC100 spectrofluorophotometer.

The test system of the next data set is LNCaP(PSMA+) cells. Kind of data set: Cell uptake by confocal laser scanning microscopy, LNCaP. Format: cell-based. To be noted: 1.5 μM Dox, 2 hours. As to the method: (§1) Prostrate cancer cell lines LNCaP(PSMA+) and PC3 (PSMA−) (5*10^3 cells/mL) were grown in chamber slides in RPMI 1640 media with 10% fetal bovine serum for 24 hours to attain 70% confluence. Before incubation with complex, cells were pre-incubated with OPTIMEM media for 30 minutes, followed by incubation with physical complex of 1.0:1.1 molar ratio of Dox:aptamer with a doxorubicin concentration of 1.5 μM for 2 hours, the cells were washed with PBS twice, fixed with 3.5% HCHO for 10 minutes, washed, mounted with Vector mounting media and cover slipped. Fluorescence images were obtained (Carl Zeiss LSM 510, Ar laser 488, long pass filter 560,63× water lens.)

For another data set, the system named is PC3 (PSMA−) cells. Nature of the data set: Cell uptake by confocal laser scanning microscopy, PC3. Format: cell-based. To be noted: 1.5 μM Dox, 2 hours. As to the method:
as §1

The test system of data set [2] is LNCaP cells. Kind of data set: Flow cytometry of cellular uptake, LNCaP. It is filed as cell-based. To be noted: LNCaP compared to PC3; 1.5 μM. The procedure:
(§2) Cellular uptake of the complex was confirmed using flow cytometry (EPICS XL Flow cytometry systems, Beckman Coulter, Inc). Briefly, 5×10^4 cells were seeded onto 12 well plates (n=4) for 24 hours followed by incubation for 2 hours with the complex solution (1.0:1.1 mole ratio of Dox:aptamer) such that final Dox concentration was 1.5 μM. Cells were washed with PBS twice, trypsinized, centrifuged at 1000 rpm for 3 minutes and resuspended in PBS for FACS analysis. Data were processed with EXPO 32 software.
On the technique in general: A flow cytometer gives signals particle by particle.

Data set [3] concerns PC3 cells. Nature of the data set: Flow cytometry of cellular uptake, PC3. Format: cell-based. To be noted: PC3 compared to LNCaP; 1.5 μM. The procedure: as §2
Data set [4] concerns LNCaP cells. As to conditions: MTT, QD 100 nM, Dox 5 μM. As to the method:
(§3) The prostate LNCaP and PC3 cell lines were grown in 24-well plates in RPMI-1640 and Ham's F-12K medium, respectively, both supplemented with 100 units/ml aqueous penicillin G, 100 μg/ml streptomycin, and 10% FBS (fetal bovine serum) at concentrations to allow 70% confluence in 24 hours (i.e., 40,000 cells/cm^2). […] Cells were incubated with the conjugates for 3 hours at 37° C., washed two times with PBS (1 ml per well), and incubated in fresh growth media for a total of 72 hours. Cell viability was assessed colorimetrically with the MTT reagent (ATCC) following the standard protocol provided by the manufacturer. The absorbance was read with a microplate reader at 570 nm.

Data set [5] concerns PC3 cells. To be noted: MTT, QD 100 nM, Dox 5 μM. The procedure: as §3
Data set [6] relates to LNCaP cells. As to conditions: cited from earlier work.
Data set [7] concerns PC3 cells. As to conditions: cited from earlier work.

≈ marks a conversion by molar mass, not a printed value. Entries after “also recorded” stand apart in the source; their conditions may differ.

On to `CC(=O)O[C@@]12CO[C@@H]1C[C@H](O)[C@@]1(C)C(=O)[C@H](O)C3=C(C)[C@@H](OC(=O)[C@H](O)[C@@H](NC(=O)OC(C)(C)C)c4ccccc4)C[C@@](O)([C@@H](OC(=O)c4ccccc4)[C@H]21)C3(C)C` [Dtxl, docetaxel], for which the water solubility in data set [1] is 0.025 mg/L (≈ 0.0309 µM).
`COc1cccc2c1C(=O)c1c(O)c3c(c(O)c1C2=O)C[C@@](O)(C(=O)CO)C[C@@H]3O[C@H]1C[C@H](N)[C@H](O)[C@H](C)O1` [free Dox, doxorubicin]: the “Kd expressed as equiv of the aptamer” value at A10 PSMA aptamer is 0.52 equiv. Besides, the “uptake / staining by confocal microscopy” value with LNCaP(PSMA+) cells is given as “readily diffuses through the plasma membrane; also recorded: almost exclusively stains nuclei”; with PC3 (PSMA−) cells it was “readily diffuses through the plasma membrane”. Also, the “staining by flow cytometry” value in the data set on LNCaP cells [2] and in the data set on PC3 cells [3] was “near-identical staining” throughout. For the same molecule, the “cytotoxicity” value in the data set on LNCaP cells [4] and in the data set with PC3 cells [5] was “equipotent” throughout.

B1: free aptamer: A10 RNA aptamer that binds to the PSMA protein on the surface of prostate cancer cells (Lupold et al., 2002) (nucleic acid)
chain: GGGAGGACGAUGCGGAUCAGCCAUGUUUACGUCACUCCUUGUCAAUCCUCAUCGGCAGACGACUCGCCCGA
modifications: chemistry not given here
With B1, the “cytotoxicity, previously reported” value in the data set with LNCaP cells [6] and in the data set with PC3 cells [7] was “no cytotoxicity” in each case.
